Calls of active or inactive are those of the source.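 How the source made its calls: active means compounds cutting HIV-1 replication by at least half at any tested dose; inactive means the rest.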
tested on: MAGI-CCR5 cells, HIV-1 BaL, beta-gal luminescence, 48 h; assay: R5 HIV-1 replication inhibitors in MAGI cells, MAGI-CCR5 cells, beta-gal luminescence, 2% serum, set 3 (AID 504352)

Structure (SMILES)	IC50
CS(=O)(=O)C1=NSC2=NC(=O)/C(=C\c3cccn3-c3cccc(Cl)c3)C(=N)N21	52.1 µM
COc1ccc(Cn2c(O)cc3nn(-c4nc5ccccc5s4)c(=O)c-3c2C)cc1	4.1 µM
COc1ccccc1NS(=O)(=O)c1ccc2c(c1)C1C=CCC1C(c1ccc(C(=O)O)cc1)N2 (stereo not drawn)	2.87 µM
CS(=O)(=O)C1=NSC2=NC(=O)/C(=C\c3cccn3-c3ccc(Cl)cc3)C(=N)N21	41.7 µM
O=C(O)CCCN1C(=O)/C(=C\c2ccc(-c3ccc(Br)cc3)o2)SC1=S	> 100 µM (inactive)
CCc1ccc(-c2ccc(/C=C3\SC(=S)N(CCCC(=O)O)C3=O)o2)cc1	3.43 µM
Cc1c2c(=O)n(-c3nc4ccccc4s3)nc-2cc(O)n1Cc1ccccc1Cl	3.68 µM
CCOC(=O)C1=C(C)N=c2sc(=Cc3ccc(OCC(=O)O)cc3)c(=O)n2C1c1ccc(F)cc1 (stereo not drawn)	36.1 µM
CS(=O)(=O)C1=NSC2=NC(=O)/C(=C\c3cccn3-c3cccc(C(F)(F)F)c3)C(=N)N21	47.3 µM
CCOc1ccc(-n2cccc2/C=C2/C(=N)N3C(=NC2=O)SN=C3S(C)(=O)=O)cc1	24.3 µM
O=C(O)CCC(C(=O)O)N1C(=O)/C(=C\c2ccco2)SC1=S (stereo not drawn)	> 100 µM (inactive)
O=C(O)CCCN1C(=O)/C(=C/c2ccc(-c3ccc(Cl)c(Cl)c3)o2)SC1=S	27.4 µM
COc1ccc(-c2ccc(/C=C3\SC(=S)N(CCCC(=O)O)C3=O)o2)cc1	56.5 µM
Cc1c2c(=O)n(-c3nc4ccccc4s3)nc-2cc(O)n1CCc1ccc(O)cc1	2.83 µM
Cc1ccc(-c2ccc(/C=C3\SC(=S)N(CCCC(=O)O)C3=O)o2)cc1	10.9 µM
Cc1c2c(=O)n(-c3nc4ccccc4s3)nc-2cc(O)n1Cc1cccnc1	1.95 µM
CCc1ccc(-n2cccc2/C=C2/C(=N)N3C(=NC2=O)SN=C3S(C)(=O)=O)cc1	36.2 µM
Cc1ccc(-n2cccc2/C=C2/C(=N)N3C(=NC2=O)SN=C3S(C)(=O)=O)cc1C	36.1 µM
COc1ccc(-n2cccc2/C=C2/C(=N)N3C(=NC2=O)SN=C3S(C)(=O)=O)cc1Cl	32.1 µM
CCOC(=O)C1=C(C)N=c2s/c(=C\c3ccc(OCC(=O)O)cc3)c(=O)n2C1c1ccc(OC)c(OCC)c1 (stereo not drawn)	33.6 µM
Cc1c2c(=O)n(-c3nc4ccccc4s3)nc-2cc(O)n1Cc1ccncc1	4.4 µM
CS(=O)(=O)C1=NSC2=NC(=O)/C(=C\c3cccn3-c3ccc(F)cc3)C(=N)N21	35.1 µM
COc1ccc(CCn2c(O)cc3nn(-c4nc5ccccc5s4)c(=O)c-3c2C)cc1	13.4 µM
CS(=O)(=O)C1=NSC2=NC(=O)/C(=C\c3cccn3-c3ccc(Br)cc3)C(=N)N21	43.5 µM

Further lines, results first:

IC50	Structure (SMILES)
49.5 µM	O=C(O)c1ccc(C[n+]2c(-c3ccccc3)csc2Nc2ccccc2)cc1
7.55 µM	O=C(O)CCCN1C(=O)/C(=C/c2cc3ccccc3o2)SC1=S
32.4 µM	O=C(O)CCCN1C(=O)/C(=C/c2ccc(-c3cccc(C(F)(F)F)c3)o2)SC1=S
0.56 µM	Cc1c2c(=O)n(-c3nc4ccccc4s3)nc-2cc(O)n1C1CC1
15.2 µM	O=C(O)CCCN1C(=O)/C(=C\c2ccc(-c3cccc(Cl)c3)o2)SC1=S
35.1 µM	Cc1ccc(-n2cccc2/C=C2/C(=N)N3C(=NC2=O)SN=C3S(C)(=O)=O)cc1
> 100 µM (inactive)	Nc1sc2ccccc2[n+]1Cc1ccc(C(=O)O)cc1
> 100 µM (inactive)	CC1=C(C(=O)OC(C)C)C(c2ccc(Cl)cc2)n2c(s/c(=C\c3ccc(OCC(=O)O)cc3)c2=O)=N1 (stereo not drawn)
15 µM	O=C(O)c1ccc(C[n+]2c(-c3ccc([N+](=O)[O-])cc3)csc2Nc2ccccc2)cc1
37 µM	COc1cccc(-n2cccc2/C=C2/C(=N)N3C(=NC2=O)SN=C3S(C)(=O)=O)c1
43.6 µM	CCOC(=O)C1=C(C)N=c2sc(=Cc3ccc(OCC(=O)O)cc3)c(=O)n2C1c1ccccc1 (stereo not drawn)
6.6 µM	CCOC(=O)C1=C(c2ccccc2)N=c2s/c(=C\c3ccc(OCC(=O)O)cc3)c(=O)n2C1c1cccc(OC)c1 (stereo not drawn)
3.98 µM	Cc1c2c(=O)n(-c3nc4ccccc4s3)nc-2cc(O)n1CCc1cccs1
55.4 µM	COc1cccc(C2C(C(=O)Nc3ccccc3)=C(C)N=c3sc(=Cc4ccc(OCC(=O)O)cc4)c(=O)n32)c1 (stereo not drawn)
33.7 µM	CS(=O)(=O)C1=NSC2=NC(=O)/C(=C\c3cccn3-c3cc(Cl)cc(Cl)c3)C(=N)N21
2.16 µM	Cc1c2c(=O)n(-c3nc4ccccc4s3)nc-2cc(O)n1CCC(C)C
37 µM	O=C(O)CCCN1C(=O)/C(=C\c2ccc(-c3ccc(F)cc3)o2)SC1=S
1.68 µM	O=C(O)c1ccc(C2Nc3ccc(S(=O)(=O)Nc4cc(Cl)ccc4Cl)cc3C3C=CCC32)cc1 (stereo not drawn)
1.9 µM	COc1ccccc1Cn1c(O)cc2nn(-c3nc4ccccc4s3)c(=O)c-2c1C
3.89 µM	Cc1c2c(=O)n(-c3nc4ccccc4s3)nc-2cc(O)n1Cc1ccc(F)cc1
38.9 µM	CS(=O)(=O)C1=NSC2=NC(=O)/C(=C\c3cccn3-c3cccc(F)c3)C(=N)N21
45.1 µM	CCOC(=O)C1=C(C)N=c2sc(=Cc3ccc(OCC(=O)O)cc3)c(=O)n2C1c1ccccc1OC (stereo not drawn)
42.1 µM	CS(=O)(=O)C1=NSC2=NC(=O)/C(=C\c3cccn3-c3ccc(Cl)c(Cl)c3)C(=N)N21
2.88 µM	O=C(O)CCCN1C(=O)/C(=C\c2ccc(-c3ccc(Cl)cc3)o2)SC1=S
2.27 µM	Cc1c2c(=O)n(-c3nc4ccccc4s3)nc-2cc(O)n1Cc1cccs1
> 100 µM (inactive)	CCOC(=O)C1=C(C)N=c2sc(=Cc3ccc(OCC(=O)O)cc3)c(=O)n2C1c1cc(OC)c(OC)c(OC)c1 (stereo not drawn)
38.1 µM	CCOC(=O)C1=C(C)N=c2s/c(=C\c3ccc(OCC(=O)O)cc3)c(=O)n2C1c1ccc(Cl)cc1 (stereo not drawn)
44.7 µM	CCOC(=O)C1=C(C)N=c2sc(=Cc3ccc(OCC(=O)O)cc3)c(=O)n2C1c1ccc(OC)cc1OC (stereo not drawn)
3.71 µM	O=C(O)c1ccc([C@@H]2Nc3ccc(S(=O)(=O)Nc4cccc5ccccc45)cc3[C@@H]3C=CC[C@@H]32)cc1
